A value given as a limit tells only on which side of the number the result lay.

The target of one data set is CYP3A4 (Homo sapiens (Human), UniProt P08684). The experiment in a line: biochemical. Format: in vitro ADME. Particulars: for IC50: human liver microsomes, midazolam 0.5 μmol/L; for CYP Inhibition Time Dependent (TDI) (untreated/Pre-incubation), CYP3A4: microsomes. How it is done:
(§1) <Incubation Mixture> • 100 mM phosphate buffer (pH 7.4) • 0.1 mg/mL of pooled human liver microsomes (male and female mixture, a pool of 50 donors) <NADPH Aqueous Solution> • 10 mM NADPH (final concentration 1 mM NADPH) <Measurement of Metabolite>
Warfarin was used as internal standard (IS).
To a 96 deep well plate was added 2.5 μL, of the test substance solution (×200 concentration), 442.5 μL of Incubation Mixture, and 5 μL of the substrate solution, and the solution was mixed and warmed to 37° C. for 5 minutes. To this incubation solution 50 μL of 10 mM NADPH was added to start the reaction, and incubated at 37° C. for 5 minutes. After the incubation, 100 μL of the Incubation Mixture was removed, added to 150 μL of isopropanol containing IS and mixed. […] The filtrate was used for LC-MS/MS analysis.
To a 96 deep well plate was added 2.5 μL of the test substance solution (×200 concentration), and 442.5 μL of Incubation Mixture, and the solution was mixed and warmed to 37° C. for 5 minutes. To this incubation solution 50 μL of 10 mM NADPH was added and preincubated at 37° C. for 30 minutes. […] After the reaction, 100 μL of the Incubation Mixture was removed, added to 150 μL of isopropanol containing IS and mixed. […] The filtrate was used for LC-MS/MS analysis.
(§2) Based on the metabolite production of the DMSO control group defined as 100, percent inhibitions of the metabolite production in the test substance group were determined, and inhibition curves were plotted at 5 concentrations. The test substance concentration showing 50% inhibition (IC50) was determined from the fitting curve of the inhibition curve.
(In general: Liver microsomes are vesicles of endoplasmic reticulum, rich in cytochrome P450 enzymes.)

Data set [1] can be described thus: Cytotoxicity test (WST-8). The conditions noted are these: human, firefly luciferase HCV replicon cells (Huh3-1); Huh3-1 replicon cells, 3 days culture, Cell counting kit-8; read-out: Cytotoxicity WST8 (IC50). Format: cell-based. As to the method: The firefly luciferase HCV replicon cells (Huh3-1) were suspended in Dulbecco's MEM (Gibco cat. No. 10,569-010) containing 5% fetal bovine serum (Hyclone cat. No. SH30071.03), seeded at 4500 cells/90 μL/well in 96-well plates, and cultured overnight in 5% CO2 at 37° C. After 20 hours, 10 μL per well of compounds prepared at a concentration 10 times the final concentration were added, and they were further cultured for 3 days.
Two series of assay plates, one series of white plates and another series of clear plates, were prepared and used for the assay.
Clear plates were used for a cytotoxicity test (WST-8). Cytotoxicity was measured using Cell counting kit-8 (Dojindo cat. No. CK04). More specifically, 100 μL of Cell counting kit-8 diluted 10-fold from the stock solution with PBS (SIGMA cat. No. D8537) was added to each well in the aforementioned clear plates from which medium was removed and the plates were incubated at 37° C. for 30 to 60 minutes. Absorbance was measured at a wavelength of 460 nm and a control wavelength of 590 nm by a plate reader (EnVision™ 2103 Multilabel Reader). All values were expressed as differences from the background which was measured with neither cells nor drug and IC50 (50% inhibitory concentration) values of drugs were calculated based on the value when no drug was added defined as 0% inhibition.
(In general: Tetrazolium dyes change colour on reduction, which living cells bring about.)

A further data set concerns the target CYP2C9 (Homo sapiens (Human), UniProt P11712). The experiment in a line: biochemical. The conditions noted are these: for IC50: human liver microsomes, diclofenac 0.2 μmol/L; for TDI Ratio, CYP2C9: microsomes. As to the method:
Tests were carried out according to the following experiment method.
as §1
After incubation, the concentrations of the produced metabolites were measured using LC-MS/MS (API4000 or 5500QTRAP). Warfarin was used as internal standard (IS). The concentration was calculated using a standard curve created using a metabolite standard solution.
To a 96 deep well plate was added 2.5 μL, of the test substance solution (×200 concentration), 442.5 μL of Incubation Mixture, and 5 μL of the substrate solution, and the solution was mixed and warmed to 37° C. for 5 minutes. To this incubation solution 50 μL of 10 mM NADPH was added to start the reaction, and incubated at 37° C. for 5 minutes. After the incubation, 100 μL of the Incubation Mixture was removed, added to 150 μL of isopropanol containing IS and mixed. This mixture was transferred onto a multi-screen filter, centrifuged at 500×g at 4° C. for 10 minutes. The filtrate was used for LC-MS/MS analysis.
To a 96 deep well plate was added 2.5 μL of the test substance solution (×200 concentration), and 442.5 μL of Incubation Mixture, and the solution was mixed and warmed to 37° C. for 5 minutes. To this incubation solution 50 μL of 10 mM NADPH was added and preincubated at 37° C. for 30 minutes. After the preincubation, 5 μL of the substrate solution was added and the solution was mixed and further incubated at 37° C. for 5 minutes for the reaction. After the reaction, 100 μL of the Incubation Mixture was removed, added to 150 μL of isopropanol containing IS and mixed. This mixture was transferred onto a multi-screen filter, centrifuged at 500×g at 4° C. for 10 minutes. The filtrate was used for LC-MS/MS analysis.
as §2
Time dependent inhibition (TDI) was calculated as a ratio of dividing IC50 of the sample without preincubation treatment by the IC50 value measured after the preincubation treatment.

Data set [2] has as its system firefly luciferase HCV replicon cells (Huh3-1). Kind of data set: Replicon assay (firefly luciferase HCV replicon cells). In kind it is cell-based, Hepatitis C virus. The conditions noted are these: for IC50: Hepatitis C virus, 72 h, Huh3-1 replicon cells, 3 days culture, luciferase readout, read-out: Anti-replicon Activity (IC50); for IC50 of antireplicon activity converted to: unit converted assuming liver specific gravity 1 g=1 mL (FIGS. 1 to 3). For orientation: A replicon is a self-replicating genome or part of one, used to study replication in cells.
Text: As a reporter gene, for example, a gene into which a luciferase gene derived from a firefly is introduced can be used. Specifically, according to the method of Krieger et al. (N. Krieger et al., J. Virology: 75, 4614-24, 2001), a firefly luciferase gene is introduced, in a form fused with a neomycin-resistant gene, immediately downstream of an internal ribosome entry site (IRES) of the HCV gene. After synthesizing the RNA in vitro, it is introduced into suitable cells by, for example, electroporation to obtain firefly luciferase HCV replicon cells. These cells are seeded in wells of 96-well plates, to which a diluted test substance is added, and cultured for several days. The substrate is then added, and the luminescence is measured with a plate reader.
According to the method of Krieger et al. (N. Krieger et al., J. Virology: 75, 4614-24, 2001), a firefly luciferase gene was introduced, in a form fused with a neomycin-resistant gene, immediately downstream of an internal ribosome entry site (TRES) of the HCV gene. After synthesizing the RNA in vitro, it was introduced into Huh7 cells by electroporation and the cells were isolated as G418-resistant clones.
After culturing, the white plates were used for the replicon assay with Steady-Glo Luciferase Assay System (Promega cat. No. E2520). More specifically, 100 μL per well of the reagent was added, it was mixed 3-4 times by pipetting and allowed to stand for 5 minutes, and subsequently the luminescence was measured with a plate reader (EnVision™ 2103 Multilabel Reader).

The nature of data set [3]: Rat PK test (liver concentrations of active metabolites after oral prodrug). Format: in vivo, Wistar rat. How it is done: The test was carried out according to the following protocol. • Animal: […] (Method of Analysis) Using LC-MS/MS (API 4000), standard curves for standard compounds were prepared, and the concentrations of the active metabolites No. 5514403 and No. 5526064 at the data points were calculated.

The mark [4] stands for this setting: CYP3A4 (IC50 μM) Pre-incubation, 30 min preincubation with NADPH.
Setting [5] is: CYP3A4 (IC50 μM) untreated, without preincubation.
Setting [6] is: CYP2C9 (IC50 μM) Pre-incubation, 30 min preincubation with NADPH.
[7] abbreviates: CYP2C9 (IC50 μM) untreated, without preincubation.
Setting [8] is: rat liver, 24 hours after dosing, prodrug p.o. 30 mg/kg once a day, 7 days.
Where [9] appears, read: rat liver, prodrug p.o. 30 mg/kg once a day, 7 days.

CYP2C9, sequence (P11712 whole entry): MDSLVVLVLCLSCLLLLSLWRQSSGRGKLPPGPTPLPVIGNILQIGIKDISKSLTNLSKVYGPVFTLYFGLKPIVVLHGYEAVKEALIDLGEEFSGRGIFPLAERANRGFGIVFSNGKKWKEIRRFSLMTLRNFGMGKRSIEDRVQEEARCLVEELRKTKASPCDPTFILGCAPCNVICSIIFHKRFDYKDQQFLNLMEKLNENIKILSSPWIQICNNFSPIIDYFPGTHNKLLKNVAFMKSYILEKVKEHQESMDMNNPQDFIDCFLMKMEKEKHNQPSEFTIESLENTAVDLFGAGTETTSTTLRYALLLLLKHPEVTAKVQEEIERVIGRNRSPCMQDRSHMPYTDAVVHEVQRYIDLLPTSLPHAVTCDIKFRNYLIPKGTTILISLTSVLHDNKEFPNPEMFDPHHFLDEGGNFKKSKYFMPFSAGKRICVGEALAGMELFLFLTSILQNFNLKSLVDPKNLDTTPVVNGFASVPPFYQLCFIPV
CYP3A4, sequence (P08684 whole entry): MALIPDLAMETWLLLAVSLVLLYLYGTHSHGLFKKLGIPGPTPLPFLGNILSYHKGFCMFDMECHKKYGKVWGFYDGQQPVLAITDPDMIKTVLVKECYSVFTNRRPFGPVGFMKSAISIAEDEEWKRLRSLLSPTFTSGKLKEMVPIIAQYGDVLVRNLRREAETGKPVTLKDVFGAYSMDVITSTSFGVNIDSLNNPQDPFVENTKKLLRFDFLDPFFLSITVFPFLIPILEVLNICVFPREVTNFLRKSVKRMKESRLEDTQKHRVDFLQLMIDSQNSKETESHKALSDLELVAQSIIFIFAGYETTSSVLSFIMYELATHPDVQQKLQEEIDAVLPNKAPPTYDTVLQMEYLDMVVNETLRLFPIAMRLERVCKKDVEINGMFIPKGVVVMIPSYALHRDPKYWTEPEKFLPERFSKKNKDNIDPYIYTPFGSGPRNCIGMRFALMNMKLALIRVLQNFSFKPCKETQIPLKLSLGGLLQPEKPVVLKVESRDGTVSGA

By IC50 is commonly meant the concentration that gives 50% inhibition. Regarding `CCCCCCCC(F)(F)CCCCCC/C=C/[C@H](C(=O)N[C@@H](Cc1ccc(OCCCC)cc1)C(=O)OC)[C@@](O)(CCOC)C(=O)O` [No. 5514403, (E)-(2S,3S)-3-[(S)-2-(4-butoxy-phenyl)-1-methoxycarbonyl-ethylcarbamoyl]-12,12-difluoro-2-hydroxy-2-(2-methoxy-ethyl)-nonadec-4-enoic acid], the 50% inhibitory concentration (IC50) on CYP3A4 (setting [4]) came to 11.9 µM; against CYP3A4 (setting [5]), 23.8 µM; against CYP2C9 (setting [6]) it was 19.6 µM; at CYP2C9 (setting [7]), 7.7 µM; in data set [2], 0.0006 µM. At CYP3A4, the “CYP Inhibition Time Dependent (TDI) (untreated/Pre-incubation), CYP3A4” value is on record as 1.98. Besides, the concentration for half-maximal inhibition (IC50) at 3 days in data set [1] is > 1 µM. Moreover, the “TDI Ratio, CYP2C9” value at CYP2C9 is listed as 0.39. Further, the “IC50 of antireplicon activity converted to” value in data set [2] is on record as 0.48 ng/g.
Regarding `CCCCCCCC(F)(F)CCCCCC/C=C/[C@H](C(=O)N[C@@H](Cc1ccc(OCCCC)cc1)C(=O)O)[C@@](O)(CCOC)C(=O)O` [No. 5526064, (E)-(2S,3S)-3-[(S)-2-(4-butoxy-phenyl)-1-carboxy-ethylcarbamoyl]-12,12-difluoro-2-hydroxy-2-(2-methoxy-ethyl)-nonadec-4-enoic acid], the half-maximal inhibitory concentration (IC50) against CYP3A4 (setting [4]) was 11.8 µM; at CYP3A4 (setting [5]) it was 16.2 µM; against CYP2C9 (setting [6]), 24.4 µM; at CYP2C9 (setting [7]), 12.5 µM; in data set [2], 0.00215 µM. The “CYP Inhibition Time Dependent (TDI) (untreated/Pre-incubation), CYP3A4” value on CYP3A4 is given as 1.37. Further, in data set [1], the IC50 at 3 days was > 1 µM. Also, the “TDI Ratio, CYP2C9” value at CYP2C9 was found to be 0.51. The “IC50 of antireplicon activity converted to” value in data set [2] is 1.44 ng/g.
For the compound `CCCCCCCC(F)(F)CCCCCC/C=C/[C@H](C(=O)N[C@@H](Cc1ccc(OCCCC)cc1)C(=O)OC)[C@@](O)(CCOC)C(=O)OCc1oc(=O)oc1C` [No. 6808755, (5-methyl-2-oxo-[1,3]dioxol-4-yl)methyl (E)-(2S,3S)-3-[(S)-2-(4-butoxy-phenyl)-1-methoxycarbonyl-ethylcarbamoyl]-12,12-difluoro-2-hydroxy-2-(2-methoxy-ethyl)-nonadec-4-enoate], in data set [3] (setting [8]), the “concentration of active compound No. 5514403 in the liver” value is ≥ 100 ng/g and the “concentration of active metabolite No. 5526064 in the liver” value is reported as ≥ 100 ng/g. Moreover, in data set [3] (rat, p.o., in comparison with No. 6809532 and No. 6811559), the “exposure of the liver to the active drugs” value is on record as “significantly higher exposure of the liver to the active drugs”.
As to `CCCCCCCC(F)(F)CCCCCC/C=C/[C@H](C(=O)N[C@@H](Cc1ccc(OCCCC)cc1)C(=O)OC)[C@@](O)(CCOC)C(=O)OC` [No. 6809532, Methyl (E)-(2S,3S)-3-[(S)-2-(4-butoxy-phenyl)-1-methoxycarbonyl-ethylcarbamoyl]-12,12-difluoro-2-hydroxy-2-(2-methoxy-ethyl)-nonadec-4-enoate, reference compound], in data set [3] (setting [9]), the “presence of the active compound No. 5514403 in the liver” value is “hardly detected”.
On to `CCCCCCCC(F)(F)CCCCCC/C=C/[C@H](C(=O)N[C@@H](Cc1ccc(OCCCC)cc1)C(=O)OC)[C@@](O)(CCOC)C(=O)OCC(=O)OC` [No. 6811559, Methoxycarbonylmethyl (E)-(2S,3S)-3-[(S)-2-(4-butoxy-phenyl)-1-methoxycarbonyl-ethylcarbamoyl]-12,12-difluoro-2-hydroxy-2-(2-methoxy-ethyl)-nonadec-4-enoate, reference compound], for which, in data set [3] (setting [9]), the “presence of the active compound No. 5514403 in the liver” value is listed as “hardly detected”.

For the origin of these results see patent US9266853B2, “Orally available viridiofungin derivative possessing anti-HCV activity” (Chugai Seiyaku Kabushiki Kaisha, priority 2012, dated 2016).
